# Results: ChEMBL document CHEMBL4308859, “Discovery of Novel Central Nervous System Penetrant Metabotropic Glutamate Receptor Subtype 2 (mGlu2) Negative Allosteric Modulators (NAMs) Based on Functionalized Pyrazolo[1,5- a]pyrimidine-5-carboxamide and Thieno[3,2- b]pyridine-5-carboxamide Cores” (J Med Chem, 2018)
# What was measured:
# [1] = Fraction unbound in human plasma after 4 hrs by equilibrium dialysis method; assay type: ADME, cell-free
# [2] = target: Metabotropic glutamate receptor 2 (Rattus norvegicus, UniProt P31421); assay: (§1) Negative allosteric modulation of rat mGlu2R expressed in HEK293 cells co-expressing Galpha15 assessed as decrease in glutamate-induced calcium mobilization preincubated for 2.3 mins followed by glutamate addition and measured after 1.7 mins by Fluo-4-AM dye based fluorescence assay; assay type: functional, cell-based
# [3] = Unbound AUC in Sprague-Dawley rat brain at 10 mg/kg, ip by LC-MS/MS analysis; assay type: ADME, organism-based; conditions: in vivo
# [4] = Ratio of AUC in brain to plasma of Sprague-Dawley rat at 10 mg/kg, ip by LC-MS/MS analysis; assay type: ADME, organism-based; conditions: brain and plasma, read-out: Ratio AUC
# [5] = Brain to plasma partition coefficient, Kp of the compound in Sprague-Dawley rat at 0.2 mg/kg, iv administered as cassette dose by LC-MS/MS analysis; assay type: ADME, organism-based; conditions: brain and plasma
# [6] = Cmax in Sprague-Dawley rat plasma at 10 mg/kg, ip by LC-MS/MS analysis; assay type: ADME, organism-based; design: dose 10 mg/kg, route intraperitoneal
# [7] = Fraction unbound in rat plasma after 4 hrs by equilibrium dialysis method; assay type: ADME, cell-free
# [8] = AUC in Sprague-Dawley rat plasma at 10 mg/kg, ip by LC-MS/MS analysis; assay type: ADME, organism-based; conditions: in vivo
# [9] = target: Metabotropic glutamate receptor 1 (Homo sapiens, UniProt Q13255); assay: Negative allosteric modulation of human mGlu1R expressed in Trex293 cells assessed as decrease in glutamate-induced calcium mobilization preincubated for 2.3 mins followed by glutamate addition and measured after 2.6 mins by Fluo-4-AM dye based fluorescence assay; assay type: functional, cell-based
# [10] = Unbound Cmax in Sprague-Dawley rat brain at 10 mg/kg, ip by LC-MS/MS analysis; assay type: ADME, organism-based; conditions: in vivo
# [11] = target: Metabotropic glutamate receptor 7 (Rattus norvegicus, UniProt P35400); assay: Negative allosteric modulation of rat mGlu7 receptor expressed in HEK cells harboring GIRK assessed as reduction in […]-induced thallium flux preincubated for 2.3 mins followed by […] addition measured after 2.6 mins by BTC-AM-dye based fluorescence assay; assay type: cell-based
# [12] = Fraction unbound in rat brain; assay type: ADME, tissue-based
# [13] = target: Metabotropic glutamate receptor 6 (Homo sapiens, UniProt O15303); assay: Negative allosteric modulation of human mGlu6 receptor expressed in HEK cells harboring GIRK assessed as reduction in glutamate-induced thallium flux preincubated for 2.3 mins followed by glutamate addition measured after 2.6 mins by BTC-AM-dye based fluorescence assay; assay type: cell-based
# [14] = Cmax in Sprague-Dawley rat brain at 10 mg/kg, ip by LC-MS/MS analysis; assay type: ADME, organism-based; design: dose 10 mg/kg, route intraperitoneal
# [15] = target: Metabotropic glutamate receptor 4 (Rattus norvegicus, UniProt P31423); assay: Negative allosteric modulation of rat mGlu4 receptor expressed in HEK cells harboring GIRK assessed as reduction in glutamate-induced thallium flux preincubated for 2.3 mins followed by glutamate addition measured after 2.6 mins by BTC-AM-dye based fluorescence assay; assay type: cell-based
# [16] = target: Metabotropic glutamate receptor 3 (Rattus norvegicus, UniProt P31422); assay: Negative allosteric modulation of rat mGlu3R expressed in Trex cells co-expressing Galpha15 assessed as decrease in glutamate-induced calcium mobilization preincubated for 2.3 mins followed by glutamate addition and measured after 2.6 mins by Fluo-4-AM dye based fluorescence assay; assay type: functional, cell-based
# [17] = Half life in Sprague-Dawley rat at 0.2 mg/kg, iv administered as cassette dose by LC-MS/MS analysis; assay type: ADME, organism-based; conditions: in vivo
# [18] = target: Metabotropic glutamate receptor 8 (Rattus norvegicus, UniProt P70579); assay: Negative allosteric modulation of rat mGlu8 receptor expressed in HEK cells harboring GIRK assessed as reduction in glutamate-induced thallium flux preincubated for 2.3 mins followed by glutamate addition measured after 2.6 mins by BTC-AM-dye based fluorescence assay; assay type: cell-based
# [19] = target: Metabotropic glutamate receptor 2 (Rattus norvegicus) (UniProt P31421); assay: as §1, with “mobilization at 30 uM” for “mobilization”, “assay relative to control” for “assay”; assay type: functional, cell-based
# [20] = target: Metabotropic glutamate receptor 5 (Homo sapiens, UniProt P41594); assay: Negative allosteric modulation of human mGlu5R expressed in Trex293 cells assessed as decrease in glutamate-induced calcium mobilization preincubated for 2.3 mins followed by glutamate addition and measured after 2.6 mins by Fluo-4-AM dye based fluorescence assay; assay type: functional, cell-based
# [21] = AUC in Sprague-Dawley rat brain at 10 mg/kg, ip by LC-MS/MS analysis; assay type: ADME, organism-based; conditions: in vivo
# [22] = Unbound brain to plasma ratio in Sprague-Dawley rat at 0.2 mg/kg, iv administered as cassette dose by LC-MS/MS analysis; assay type: ADME, organism-based; conditions: brain and plasma, read-out: K(p,uu,brain)
# Metabotropic glutamate receptor 2, sequence (P31421 whole entry): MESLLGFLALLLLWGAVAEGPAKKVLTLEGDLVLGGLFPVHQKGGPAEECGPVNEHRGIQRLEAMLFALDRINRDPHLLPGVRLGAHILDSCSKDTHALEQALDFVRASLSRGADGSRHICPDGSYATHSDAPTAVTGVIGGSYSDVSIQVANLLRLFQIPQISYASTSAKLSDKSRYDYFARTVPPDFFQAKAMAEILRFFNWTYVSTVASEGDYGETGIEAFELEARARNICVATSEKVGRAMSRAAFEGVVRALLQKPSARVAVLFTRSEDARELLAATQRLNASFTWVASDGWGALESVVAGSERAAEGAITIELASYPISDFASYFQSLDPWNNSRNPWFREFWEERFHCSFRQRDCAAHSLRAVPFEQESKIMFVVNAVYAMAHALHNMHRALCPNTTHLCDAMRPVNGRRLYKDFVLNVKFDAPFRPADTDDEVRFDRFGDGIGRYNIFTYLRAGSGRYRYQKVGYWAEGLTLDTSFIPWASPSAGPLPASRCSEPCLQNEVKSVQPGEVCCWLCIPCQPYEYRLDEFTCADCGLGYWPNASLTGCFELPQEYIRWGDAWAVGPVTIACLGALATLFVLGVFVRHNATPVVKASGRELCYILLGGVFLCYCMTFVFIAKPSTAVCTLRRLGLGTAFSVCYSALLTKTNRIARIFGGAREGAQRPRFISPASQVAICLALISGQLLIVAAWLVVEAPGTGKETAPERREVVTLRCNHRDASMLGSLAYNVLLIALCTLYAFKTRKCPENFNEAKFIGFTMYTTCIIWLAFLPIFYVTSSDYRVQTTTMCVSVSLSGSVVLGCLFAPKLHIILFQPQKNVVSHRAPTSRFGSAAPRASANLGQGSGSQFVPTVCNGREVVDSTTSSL
# Metabotropic glutamate receptor 8, sequence (P70579 whole entry): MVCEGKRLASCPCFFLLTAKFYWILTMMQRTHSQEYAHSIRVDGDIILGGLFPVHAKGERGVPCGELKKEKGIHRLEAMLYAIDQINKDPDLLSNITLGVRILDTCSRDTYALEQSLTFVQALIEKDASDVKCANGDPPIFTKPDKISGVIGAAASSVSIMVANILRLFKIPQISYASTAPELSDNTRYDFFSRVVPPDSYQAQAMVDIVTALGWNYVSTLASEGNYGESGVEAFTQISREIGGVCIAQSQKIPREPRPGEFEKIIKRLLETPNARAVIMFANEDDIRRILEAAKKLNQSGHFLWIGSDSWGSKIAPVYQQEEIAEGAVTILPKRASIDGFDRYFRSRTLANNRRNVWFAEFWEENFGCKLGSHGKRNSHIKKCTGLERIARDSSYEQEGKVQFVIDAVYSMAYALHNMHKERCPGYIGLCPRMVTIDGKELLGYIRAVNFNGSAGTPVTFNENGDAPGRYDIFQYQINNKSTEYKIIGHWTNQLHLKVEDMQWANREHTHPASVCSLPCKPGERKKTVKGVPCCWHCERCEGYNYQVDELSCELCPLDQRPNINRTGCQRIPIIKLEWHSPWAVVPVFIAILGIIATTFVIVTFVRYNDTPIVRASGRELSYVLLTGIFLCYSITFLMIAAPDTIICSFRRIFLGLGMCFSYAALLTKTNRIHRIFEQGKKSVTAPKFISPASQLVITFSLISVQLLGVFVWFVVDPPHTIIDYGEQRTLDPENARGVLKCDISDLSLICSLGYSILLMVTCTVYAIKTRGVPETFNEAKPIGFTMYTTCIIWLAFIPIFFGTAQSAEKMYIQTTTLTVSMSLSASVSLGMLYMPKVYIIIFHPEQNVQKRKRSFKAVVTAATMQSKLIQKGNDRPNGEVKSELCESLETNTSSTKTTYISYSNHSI
# Metabotropic glutamate receptor 7, sequence (P35400 whole entry): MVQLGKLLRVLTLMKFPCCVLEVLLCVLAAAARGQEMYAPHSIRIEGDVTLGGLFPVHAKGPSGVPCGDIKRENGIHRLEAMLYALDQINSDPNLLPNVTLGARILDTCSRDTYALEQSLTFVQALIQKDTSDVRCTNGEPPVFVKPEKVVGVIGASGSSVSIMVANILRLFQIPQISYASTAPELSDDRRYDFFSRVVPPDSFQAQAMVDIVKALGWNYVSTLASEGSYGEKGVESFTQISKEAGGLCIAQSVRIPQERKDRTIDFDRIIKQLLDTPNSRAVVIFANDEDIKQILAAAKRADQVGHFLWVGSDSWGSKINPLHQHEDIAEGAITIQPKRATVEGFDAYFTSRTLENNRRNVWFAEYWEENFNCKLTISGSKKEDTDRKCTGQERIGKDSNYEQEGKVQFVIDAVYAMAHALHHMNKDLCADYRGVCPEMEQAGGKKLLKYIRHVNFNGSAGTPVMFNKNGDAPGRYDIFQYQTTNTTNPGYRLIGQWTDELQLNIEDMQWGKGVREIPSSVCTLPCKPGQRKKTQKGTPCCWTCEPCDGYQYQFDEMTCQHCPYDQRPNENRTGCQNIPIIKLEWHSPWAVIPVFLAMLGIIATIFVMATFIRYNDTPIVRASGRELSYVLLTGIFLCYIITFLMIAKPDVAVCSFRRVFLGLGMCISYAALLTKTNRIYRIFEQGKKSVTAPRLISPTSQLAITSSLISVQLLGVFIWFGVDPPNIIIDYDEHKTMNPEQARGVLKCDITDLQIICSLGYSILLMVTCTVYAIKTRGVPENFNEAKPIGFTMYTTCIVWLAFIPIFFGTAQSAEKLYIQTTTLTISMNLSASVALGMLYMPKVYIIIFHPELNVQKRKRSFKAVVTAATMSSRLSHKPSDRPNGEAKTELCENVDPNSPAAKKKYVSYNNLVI
# Metabotropic glutamate receptor 6, sequence (O15303 whole entry): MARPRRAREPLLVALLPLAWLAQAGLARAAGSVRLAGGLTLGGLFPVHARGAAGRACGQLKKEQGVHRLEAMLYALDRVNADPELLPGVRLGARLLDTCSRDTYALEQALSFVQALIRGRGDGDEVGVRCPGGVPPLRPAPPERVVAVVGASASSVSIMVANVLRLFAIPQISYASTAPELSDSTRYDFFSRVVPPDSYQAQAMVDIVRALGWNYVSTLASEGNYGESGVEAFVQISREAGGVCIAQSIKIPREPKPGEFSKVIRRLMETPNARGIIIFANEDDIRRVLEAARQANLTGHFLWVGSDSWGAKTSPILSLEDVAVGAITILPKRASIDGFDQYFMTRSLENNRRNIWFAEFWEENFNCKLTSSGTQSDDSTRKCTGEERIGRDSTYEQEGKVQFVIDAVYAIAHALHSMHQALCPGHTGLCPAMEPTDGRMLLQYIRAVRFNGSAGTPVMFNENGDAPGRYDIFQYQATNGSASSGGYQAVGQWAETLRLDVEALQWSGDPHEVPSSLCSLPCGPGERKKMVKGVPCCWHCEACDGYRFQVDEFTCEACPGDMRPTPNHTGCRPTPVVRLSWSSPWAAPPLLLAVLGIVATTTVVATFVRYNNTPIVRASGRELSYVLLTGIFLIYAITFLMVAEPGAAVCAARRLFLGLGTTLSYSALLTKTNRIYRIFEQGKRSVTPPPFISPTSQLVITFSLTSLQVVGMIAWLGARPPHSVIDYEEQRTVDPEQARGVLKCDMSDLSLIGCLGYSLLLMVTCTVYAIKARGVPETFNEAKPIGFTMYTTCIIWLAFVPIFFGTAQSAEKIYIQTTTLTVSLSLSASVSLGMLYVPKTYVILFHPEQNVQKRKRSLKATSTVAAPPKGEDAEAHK
# Metabotropic glutamate receptor 2 (Rattus norvegicus), sequence (P31421 19-872 limits assumed): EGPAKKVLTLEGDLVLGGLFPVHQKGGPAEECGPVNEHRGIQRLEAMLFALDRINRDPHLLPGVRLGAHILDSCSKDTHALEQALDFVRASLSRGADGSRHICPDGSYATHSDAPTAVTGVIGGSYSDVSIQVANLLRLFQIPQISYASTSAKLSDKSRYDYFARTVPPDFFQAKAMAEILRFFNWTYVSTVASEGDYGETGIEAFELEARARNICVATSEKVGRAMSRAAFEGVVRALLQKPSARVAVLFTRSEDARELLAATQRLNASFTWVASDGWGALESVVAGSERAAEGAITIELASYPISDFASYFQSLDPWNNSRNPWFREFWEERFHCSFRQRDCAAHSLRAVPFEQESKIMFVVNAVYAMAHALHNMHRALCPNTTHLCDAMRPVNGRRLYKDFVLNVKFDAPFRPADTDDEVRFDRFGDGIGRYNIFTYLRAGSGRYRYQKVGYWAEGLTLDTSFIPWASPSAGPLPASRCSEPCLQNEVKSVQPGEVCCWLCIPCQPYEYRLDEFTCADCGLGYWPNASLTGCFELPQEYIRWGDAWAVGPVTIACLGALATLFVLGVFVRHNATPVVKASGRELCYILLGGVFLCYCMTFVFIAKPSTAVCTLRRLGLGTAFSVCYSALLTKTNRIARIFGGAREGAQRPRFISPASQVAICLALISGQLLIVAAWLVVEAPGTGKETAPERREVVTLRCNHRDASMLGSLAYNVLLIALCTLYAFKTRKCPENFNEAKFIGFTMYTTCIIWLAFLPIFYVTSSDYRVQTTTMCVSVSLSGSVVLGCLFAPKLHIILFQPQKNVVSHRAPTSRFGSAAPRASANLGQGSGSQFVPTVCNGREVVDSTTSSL
structure (smiles),measurement,setting,value
C[C@@H]1CN(Cc2cc3nc(C(N)=O)cc(-c4ccc(F)cc4)c3s2)C[C@H](C)O1,fraction unbound at 4 h,[1],0.01
same,IC50,[2],0.55 µM
same,fAUC,[3],165 nM
same,Kp,[4],5.67
same,Kp,[5],5.67
same,Cmax,[6],1.07 µM
same,fraction unbound at 4 h,[7],0.05
same,AUC,[8],5.81 µM
same,IC50,[9],> 30 µM
same,fCmax,[10],30.4 nM
same,IC50,[11],> 30 µM
same,fraction unbound,[12],0.005
same,IC50,[13],> 30 µM
same,Cmax,[14],6.09 µM
same,IC50,[15],> 30 µM
same,IC50,[16],> 30 µM
same,t1/2,[17],1.5 h
same,IC50,[18],> 30 µM
same,Emax,[19],2.3%
same,IC50,[20],> 30 µM
same,AUC,[21],32.9 µM
same,Kp uu,[22],0.52
